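Results reflect a 48-hour exposure of cells in 96-well plates to compound at five concentrations. Abbreviation: GI50, concentration required for 50% inhibition of growth.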 The source made the active and inactive calls. Cut-off read from the data, not from the text of the source: active = GI50 up to about 1.1 µM and inactive = higher.
What was measured:
Assay in all cases: inhibition of tumour cell growth, NCI panel, 48 h
OVCAR-8 = tested on: OVCAR-8
SN12C = tested on: SN12C
SF-539 = tested on: SF-539
RXF 393 = tested on: RXF 393
LXFL 529 = tested on: LXFL 529
KM12 = tested on: KM12
CAKI-1 = tested on: CAKI-1
A549 = tested on: A549
IGROV-1 = tested on: IGROV-1
DMS-114 = tested on: DMS-114
SR = tested on: SR
M19-MEL = tested on: M19-MEL
U-251 = tested on: U-251
SF-295 = tested on: SF-295
MOLT-4 = tested on: MOLT-4
EKVX = tested on: EKVX
NCI-H522 = tested on: NCI-H522
HOP-18 = tested on: HOP-18
NCI-H460 = tested on: NCI-H460
HCT-15 = tested on: HCT-15
HOP-92 = tested on: HOP-92
OVCAR-3 = tested on: OVCAR-3
UO-31 = tested on: UO-31
HCT-116 = tested on: HCT-116
SK-MEL-2 = tested on: SK-MEL-2
SK-MEL-28 = tested on: SK-MEL-28
SK-OV-3 = tested on: SK-OV-3
CCRF-CEM = tested on: CCRF-CEM
SNB-75 = tested on: SNB-75
A498 = tested on: A498
SF-268 = tested on: SF-268
XF498 = tested on: XF498
NCI-H226 = tested on: NCI-H226
786-0 = tested on: 786-0
Malme-3M = tested on: Malme-3M
SW-620 = tested on: SW-620
HCC 2998 = tested on: HCC 2998
UACC-257 = tested on: UACC-257
SNB-19 = tested on: SNB-19
OVCAR-4 = tested on: OVCAR-4
DMS-273 = tested on: DMS-273
COLO 205 = tested on: COLO 205
TK-10 = tested on: TK-10
SNB-78 = tested on: SNB-78
HOP-62 = tested on: HOP-62
M14 = tested on: M14
ACHN = tested on: ACHN
KM-20L2 = tested on: KM-20L2
HL-60 = tested on: HL-60
SK-MEL-5 = tested on: SK-MEL-5
DLD-1 = tested on: DLD-1
HT-29 = tested on: HT-29
NCI-H23 = tested on: NCI-H23
UACC-62 = tested on: UACC-62
LOX IMVI = tested on: LOX IMVI
K562 = tested on: K562
OVCAR-5 = tested on: OVCAR-5
RPMI-8226 = tested on: RPMI-8226

What does the source list for `COc1ccc2nc(NC(=O)C(=O)CC(=O)c3ccc(Cl)cc3)sc2c1`?
GI50 (OVCAR-8): > 100 µM (inactive); GI50 (SN12C): > 100 µM (inactive); GI50 (SF-539): 17.3 µM (inactive); GI50 (RXF 393): 31.3 µM (inactive); GI50 (LXFL 529): > 100 µM (inactive); GI50 (KM12): 35.1 µM (inactive); GI50 (CAKI-1): 58.5 µM (inactive); GI50 (A549): 67.1 µM (inactive); GI50 (IGROV-1): 73.1 µM (inactive); GI50 (DMS-114): > 100 µM (inactive); GI50 (SR): > 100 µM (inactive); GI50 (M19-MEL): > 100 µM (inactive); GI50 (U-251): 48.4 µM (inactive); GI50 (SF-295): 56.9 µM (inactive); GI50 (MOLT-4): > 100 µM (inactive); GI50 (EKVX): 48.1 µM (inactive); GI50 (NCI-H522): 92.3 µM (inactive); GI50 (HOP-18): 78.2 µM (inactive); GI50 (NCI-H460): > 100 µM (inactive); GI50 (HCT-15): > 100 µM; GI50 (HOP-92): 30.5 µM (inactive); GI50 (OVCAR-3): > 100 µM (inactive); GI50 (UO-31): 69 µM (inactive); GI50 (HCT-116): > 100 µM (inactive); GI50 (SK-MEL-2): > 100 µM (inactive); GI50 (SK-MEL-28): > 100 µM (inactive); GI50 (SK-OV-3): 34.7 µM (inactive); GI50 (CCRF-CEM): > 100 µM (inactive); GI50 (SNB-75): 29.4 µM (inactive); GI50 (A498): > 100 µM (inactive); GI50 (SF-268): 85.3 µM (inactive); GI50 (XF498): 46.9 µM (inactive); GI50 (NCI-H226): 96.2 µM (inactive); GI50 (786-0): > 100 µM (inactive); GI50 (Malme-3M): > 100 µM (inactive); GI50 (SW-620): > 100 µM (inactive); GI50 (HCC 2998): 56.9 µM (inactive); GI50 (UACC-257): > 100 µM (inactive); GI50 (SNB-19): 95.5 µM (inactive); GI50 (OVCAR-4): 20.9 µM (inactive); GI50 (DMS-273): > 100 µM (inactive); GI50 (COLO 205): > 100 µM (inactive); GI50 (TK-10): > 100 µM (inactive); GI50 (SNB-78): > 100 µM (inactive); GI50 (HOP-62): > 100 µM (inactive); GI50 (M14): > 100 µM (inactive); GI50 (ACHN): > 100 µM (inactive); GI50 (KM-20L2): 71.3 µM (inactive); GI50 (HL-60): > 100 µM (inactive); GI50 (SK-MEL-5): > 100 µM (inactive); GI50 (DLD-1): > 100 µM (inactive); GI50 (HT-29): > 100 µM (inactive); GI50 (NCI-H23): > 100 µM (inactive); GI50 (UACC-62): 68.7 µM (inactive)

Which GI50 (OVCAR-8) does the source give for `N#Cc1ccc(Oc2ccccc2)cc1C#N` here?
The GI50 was > 100 µM (inactive).

And the GI50 (SN12C)?
Its GI50 is 96.4 µM (inactive).

What about the GI50 (SF-539) of the same compound?
Its GI50 is > 100 µM (inactive).

And the GI50 (RXF 393)?
The GI50 was > 100 µM (inactive).

What about the GI50 (LOX IMVI) of the same compound?
The GI50 was 20.7 µM (inactive).

And the GI50 (LXFL 529)?
Its GI50 is 42.6 µM (inactive).

What about the GI50 (KM12) of the same compound?
The GI50 was > 100 µM (inactive).

And the GI50 (CAKI-1)?
The GI50 was 63.4 µM (inactive).

What about the GI50 (A549) of the same compound?
The GI50 was > 100 µM (inactive).

And the GI50 (IGROV-1)?
The GI50 was > 100 µM (inactive).

What about the GI50 (DMS-114) of the same compound?
The GI50 was 23.7 µM (inactive).

And the GI50 (SR)?
Its GI50 is 20.4 µM (inactive).

And the GI50 (M19-MEL)?
The GI50 was 54.2 µM (inactive).

And the GI50 (K562)?
Its GI50 is 49.3 µM (inactive).

What about the GI50 (U-251) of the same compound?
The GI50 was 44.3 µM (inactive).

What about the GI50 (SF-295) of the same compound?
Its GI50 is > 100 µM (inactive).

And the GI50 (MOLT-4)?
The GI50 was 59.3 µM (inactive).

And the GI50 (EKVX)?
The GI50 was > 100 µM (inactive).

And the GI50 (NCI-H522)?
Its GI50 is 23.4 µM (inactive).

And the GI50 (HOP-18)?
The GI50 was > 100 µM (inactive).

What about the GI50 (NCI-H460) of the same compound?
The GI50 was 33.1 µM (inactive).

What about the GI50 (HCT-15) of the same compound?
The GI50 was 19.1 µM.

What about the GI50 (HOP-92) of the same compound?
Its GI50 is > 100 µM (inactive).

What about the GI50 (OVCAR-3) of the same compound?
The GI50 was > 100 µM (inactive).

What about the GI50 (UO-31) of the same compound?
The GI50 was 92.3 µM (inactive).

And the GI50 (HCT-116)?
The GI50 was 74.8 µM (inactive).

And the GI50 (SK-MEL-2)?
The GI50 was 82.4 µM (inactive).

And the GI50 (SK-MEL-28)?
Its GI50 is > 100 µM (inactive).

What about the GI50 (SK-OV-3) of the same compound?
The GI50 was > 100 µM (inactive).

And the GI50 (CCRF-CEM)?
Its GI50 is 22.4 µM (inactive).

And the GI50 (SNB-75)?
Its GI50 is 72.3 µM (inactive).

And the GI50 (A498)?
The GI50 was > 100 µM (inactive).

What about the GI50 (SF-268) of the same compound?
Its GI50 is > 100 µM (inactive).

And the GI50 (XF498)?
The GI50 was > 100 µM (inactive).

What about the GI50 (NCI-H226) of the same compound?
The GI50 was > 100 µM (inactive).

And the GI50 (786-0)?
The GI50 was > 100 µM (inactive).

And the GI50 (Malme-3M)?
The GI50 was > 100 µM (inactive).

And the GI50 (OVCAR-5)?
The GI50 was > 100 µM (inactive).

What about the GI50 (HCC 2998) of the same compound?
Its GI50 is > 100 µM (inactive).

And the GI50 (UACC-257)?
The GI50 was > 100 µM (inactive).

What about the GI50 (SNB-19) of the same compound?
Its GI50 is > 100 µM (inactive).

And the GI50 (OVCAR-4)?
Its GI50 is 96.2 µM (inactive).

And the GI50 (RPMI-8226)?
Its GI50 is 42.8 µM (inactive).

And the GI50 (DMS-273)?
The GI50 was 17.4 µM (inactive).

And the GI50 (COLO 205)?
The GI50 was 23.2 µM (inactive).

What about the GI50 (TK-10) of the same compound?
Its GI50 is > 100 µM (inactive).

And the GI50 (SNB-78)?
The GI50 was 54.6 µM (inactive).

What about the GI50 (HOP-62) of the same compound?
The GI50 was > 100 µM (inactive).

And the GI50 (M14)?
The GI50 was > 100 µM (inactive).

And the GI50 (ACHN)?
Its GI50 is > 100 µM (inactive).

And the GI50 (KM-20L2)?
The GI50 was > 100 µM (inactive).

What about the GI50 (HL-60) of the same compound?
Its GI50 is 28.2 µM (inactive).

And the GI50 (SK-MEL-5)?
Its GI50 is > 100 µM (inactive).

What about the GI50 (DLD-1) of the same compound?
The GI50 was 65.2 µM (inactive).

And the GI50 (HT-29)?
The GI50 was 53.2 µM (inactive).

What about the GI50 (NCI-H23) of the same compound?
The GI50 was > 100 µM (inactive).

What about the GI50 (UACC-62) of the same compound?
Its GI50 is > 100 µM (inactive).

Source: ChEMBL document CHEMBL1201862, “PubChem BioAssay data set” (2004)
